{
  "source": "patent US20100304967A1",
  "about": "“METHOD OF PROTECTING RICE CROPS” (SYNGENTA CROP PROTECTION, INC., priority 2007, published 2010)",
  "key": {"cultivated rice": {"tested_on": "cultivated rice", "assay": "Example 2: damage to cultivated rice with or without safener seed dressing after clodinafop application", "type": "in vivo, Oryza sativa", "details": "for Damage to rice (%) after number of days 5: 5 days; for Damage to rice (%) after number of days 10: 10 days; for Damage to rice (%) after number of days 15: 15 days", "method": "(§1) 500 g of rice seed material are soaked in water in a plastic dish for 24 hours. After the water has been poured off, the seed material is allowed to dry in air for 1 to 2 hours; 0.025 or 0.25 g of safener of formula (I) or (II) is then added and vigorous shaking is carried out. Sowing is performed 24 hours later.\n5 days after sowing, the herbicide clodinafop in the form of an EC 100 is applied at a rate of application of 60 or 120 g/ha. 5, 10 and 15 days afterwards, the damage to the rice plants that have emerged and to the weeds is determined. For comparison, untreated cultivated rice is tested under the same conditions as an indicator of the behaviour of wild rice."}, "rice plants": {"tested_on": "rice plants", "assay": "Example 1: damage to directly sown rice from safener-dressed seed after clodinafop application", "type": "in vivo, Oryza sativa", "details": "for Damage to rice (%) after number of days 5: 5 days after application; for Damage to rice (%) after number of days 10: 10 days after application; for Damage to rice (%) after number of days 15: 15 days after application", "method": "as §1\n(§2) 5 days after sowing, the herbicide clodinafop in the form of an EC 100 is applied at a rate of application of 60 g/ha. 5, 10 and 15 days afterwards, the damage to the rice plants that have emerged and to the weeds is determined."}, "[1]": {"tested_on": "wild rice (Oryza sativa), Echinochloa crus-galli and Leptochloa chinensis", "assay": "Example 1: damage to undesirable grasses after clodinafop application", "type": "in vivo", "details": "clodinafop 60 g/ha", "method": "as §1, §2"}, "[2]": {"details": "cultivated rice without safener (indicator for wild rice), clodinafop 60 g/ha"}, "[3]": {"details": "cultivated rice without safener (indicator for wild rice), clodinafop 120 g/ha"}, "[4]": {"details": "no safener, clodinafop EC 100 60 g/ha applied 5 days after sowing"}, "[5]": {"details": "cultivated rice with 0.025 g of safener (per 500 g seed), clodinafop 60 g/ha"}, "[6]": {"details": "cultivated rice with 0.025 g of safener (per 500 g seed), clodinafop 120 g/ha"}, "[7]": {"details": "cultivated rice with 0.25 g of safener (per 500 g seed), clodinafop 60 g/ha"}, "[8]": {"details": "cultivated rice with 0.25 g of safener (per 500 g seed), clodinafop 120 g/ha"}, "[9]": {"details": "safener 0.025 g per 500 g of seed material, clodinafop 60 g/ha"}, "[10]": {"details": "safener 0.25 g per 500 g of seed material, clodinafop 60 g/ha"}, "[11]": {"details": "rice seed dressed with safener 0.025 g per 500 g"}, "[12]": {"details": "rice seed dressed with safener 0.25 g per 500 g"}},
  "data": [
    {"smiles": "C[C@@H](Oc1ccc(Oc2ncc(Cl)cc2F)cc1)C(=O)O", "note": "[Clodinafop, clodinafop, reference compound]", "values": [
      {"measurement": "Damage to rice (%) after number of days 5", "setting": "cultivated rice; [2]", "value": 40, "unit": "%"},
      {"measurement": "Damage to rice (%) after number of days 10", "setting": "cultivated rice; [2]", "value": 90, "unit": "%"},
      {"measurement": "Damage to rice (%) after number of days 15", "setting": "cultivated rice; [2]", "value": 65, "unit": "%"},
      {"measurement": "Damage to rice (%) after number of days 5", "setting": "cultivated rice; [3]", "value": 78, "unit": "%"},
      {"measurement": "Damage to rice (%) after number of days 10", "setting": "cultivated rice; [3]", "value": 98, "unit": "%"},
      {"measurement": "Damage to rice (%) after number of days 15", "setting": "cultivated rice; [3]", "value": 100, "unit": "%"},
      {"measurement": "Damage to rice (%) after number of days 5", "setting": "rice plants; [4]", "value": 68, "unit": "%"},
      {"measurement": "Damage to rice (%) after number of days 10", "setting": "rice plants; [4]", "value": 65, "unit": "%"},
      {"measurement": "Damage to rice (%) after number of days 15", "setting": "rice plants; [4]", "value": 30, "unit": "%"},
      {"measurement": "Damage to undesirable grasses* (%)", "setting": "[1]; no safener", "value": 93, "unit": "%"}
    ]},
    {"smiles": "COC(=O)c1sccc1NS(=O)(=O)c1nc2nc(C)cc(C)n2n1", "note": "[Formula II]", "values": [
      {"measurement": "Damage to rice (%) after number of days 5", "setting": "cultivated rice; [5]", "value": 18, "unit": "%"},
      {"measurement": "Damage to rice (%) after number of days 10", "setting": "cultivated rice; [5]", "value": 8, "unit": "%"},
      {"measurement": "Damage to rice (%) after number of days 15", "setting": "cultivated rice; [5]", "value": 0, "unit": "%"},
      {"measurement": "Damage to rice (%) after number of days 5", "setting": "cultivated rice; [6]", "value": 23, "unit": "%"},
      {"measurement": "Damage to rice (%) after number of days 10", "setting": "cultivated rice; [6]", "value": 15, "unit": "%"},
      {"measurement": "Damage to rice (%) after number of days 15", "setting": "cultivated rice; [6]", "value": 8, "unit": "%"},
      {"measurement": "Damage to rice (%) after number of days 5", "setting": "cultivated rice; [7]", "value": 13, "unit": "%"},
      {"measurement": "Damage to rice (%) after number of days 10", "setting": "cultivated rice; [7]", "value": 9, "unit": "%"},
      {"measurement": "Damage to rice (%) after number of days 15", "setting": "cultivated rice; [7]", "value": 0, "unit": "%"},
      {"measurement": "Damage to rice (%) after number of days 5", "setting": "cultivated rice; [8]", "value": 25, "unit": "%"},
      {"measurement": "Damage to rice (%) after number of days 10", "setting": "cultivated rice; [8]", "value": 16, "unit": "%"},
      {"measurement": "Damage to rice (%) after number of days 15", "setting": "cultivated rice; [8]", "value": 5, "unit": "%"},
      {"measurement": "Damage to rice (%) after number of days 5", "setting": "rice plants; [9]", "value": 21, "unit": "%"},
      {"measurement": "Damage to rice (%) after number of days 10", "setting": "rice plants; [9]", "value": 9, "unit": "%"},
      {"measurement": "Damage to rice (%) after number of days 15", "setting": "rice plants; [9]", "value": 0, "unit": "%"},
      {"measurement": "Damage to rice (%) after number of days 5", "setting": "rice plants; [10]", "value": 5, "unit": "%"},
      {"measurement": "Damage to rice (%) after number of days 10", "setting": "rice plants; [10]", "value": 3, "unit": "%"},
      {"measurement": "Damage to rice (%) after number of days 15", "setting": "rice plants; [10]", "value": 0, "unit": "%"},
      {"measurement": "Damage to undesirable grasses* (%)", "setting": "[1]; [11]", "value": 98, "unit": "%"},
      {"measurement": "Damage to undesirable grasses* (%)", "setting": "[1]; [12]", "value": 99, "unit": "%"}
    ]},
    {"smiles": "CNC(=O)Nc1ccc(S(=O)(=O)NC(=O)c2ccccc2OC)cc1", "note": "[Formula I]", "values": [
      {"measurement": "Damage to rice (%) after number of days 5", "setting": "rice plants; [9]", "value": 5, "unit": "%"},
      {"measurement": "Damage to rice (%) after number of days 10", "setting": "rice plants; [9]", "value": 0, "unit": "%"},
      {"measurement": "Damage to rice (%) after number of days 15", "setting": "rice plants; [9]", "value": 0, "unit": "%"},
      {"measurement": "Damage to rice (%) after number of days 5", "setting": "rice plants; [10]", "value": 4, "unit": "%"},
      {"measurement": "Damage to rice (%) after number of days 10", "setting": "rice plants; [10]", "value": 3, "unit": "%"},
      {"measurement": "Damage to rice (%) after number of days 15", "setting": "rice plants; [10]", "value": 0, "unit": "%"},
      {"measurement": "Damage to undesirable grasses* (%)", "setting": "[1]; [11]", "value": 100, "unit": "%"},
      {"measurement": "Damage to undesirable grasses* (%)", "setting": "[1]; [12]", "value": 98, "unit": "%"}
    ]}
  ]
}
